What was measured:
Type in all cases: cell-based
[1] = tested on: HCT116 cells (Securin+/+, securin parental, HCT116 FB); test: Growth inhibition (sulforhodamine B, 5 days) of securin parental cells; details: Homo sapiens, HCT-116, 120 h, SRB
Method: (§1) IC50 analysis was performed for selected fused bicyclic 2-aryl or 2-heteroarylthiazolyl compounds that were tested on HCT116 cells and Securin “knock out” cell lines.
(§2) Cell Culture—HCT116 and securin “knock out” cells. HCT116 and securin “knock out” cells (D8 and F3) were grown in RPMI+5% fetal bovine serum and gentamycin. They were maintained in a humidified 37° C. incubator with 5% CO2. Since the securin “knock out” cells have active chromosomal instability, cells were used at a low passage number of 2-13 passages. At or before passage 13 a new vial of cells was thawed and used for the screen. Cell seeding—HCT116 cells and securin “knock out” cells were trypsinized and suspended in RPMI+5% FBS at a density of 27,000 cells/mL. HCT116 and securin “knock out” cells were seeded separately in wells of a 96-well plate (Falcon Cat # 35-3872) at a cell density of 4000 cells per well. Cells were seeded in 150 μL of RPMI media containing 5% FBS and gentamycin. Cell seeding was performed under aseptic conditions. Cells were allowed to attach and grow overnight in a humidified 37° C. incubator.
(§3) Compound Dilution and Dispensation. A series of stock solutions, 10 mg/mL of fused bicyclic 2-aryl- or 2-heteroarylthiazolyl compounds to be tested, were brought to room temperature. The compounds were diluted 1:50 in RPMI+5% FBS (Highest concentration 200 μg/mL). The compounds were then serially diluted 1:3 across a deep-well titration plate resulting in final concentrations in the plate of 200, 66.7, 22.2, 7.4, 2.4, 0.8, 0.27, 0.091, 0.03, 0.01, and 0.0034 μg/mL with one well left without a compound. 50 μL of this dilution series was added to the 150 μL of cells to result in a final concentration of compound in with the cells of 50, 16.6, 5.5, 1.8, 0.6, 0.2, 0.068, 0.023, 0.0076, 0.0025, and 0.00084 μg/mL. The dilution and addition of compounds to the plates is performed using a Multimek 96 Robot (Beckman Coulter).
(§4) Incubation and analysis. After dosing, the cells in the 96 well plates were returned to the humidified 37° C. incubator. The compounds remained on the cells for 5 days. After 5 days, the cells were fixed to the plates with the addition of 50 μL of 50% (vol/vol) Trichloro Acetic Acid ([…]). The cells were fixed at 4° C. for 1 hour. The plates were washed 5 times in distilled water and allowed to dry. The cells were stained with 0.4% sulforhodamine B (Sigma) in 1% acetic acid. The cells were stained for 15 minutes at room temperature. The plates were then washed 3 times in 1% acetic acid. The plates were dried and the dye was solubilized in 10 mM Tris at pH 8.0. The plates were read on the Absorbence 560 setting on a Victor^2 V Model 1420 Multilabel HTS counter (Perkin Elmer).
(§5) Analysis of Results—IC50 data. Absorbence data was read off of the Victor and was converted to a percentage of the control (untreated) values. IC50 values were graphed and the point at which a 50% inhibition of the control level was determined. […] If the model was not able to determine an IC50, the IC50 was assigned to the lowest concentration that gives a 50% or greater decrease in absorbence compared to control levels. If the calculated IC50 value for a cell line exceeds the top concentration for the assay (typically 50 μg/mL), the assay was scored as >50.
(§6) Selectivity Ratio. The Selectivity Ratio is the ratio of IC50s between the parent cell line and the knock out cell line and is always a positive number and is typically an integer.

[2] = tested on: securin "knock out" cells D8 (Securin-/-); test: Growth inhibition (sulforhodamine B, 5 days) of securin knock out cells D8; details: for IC50: 120 h, securin knock out D8 cells, 5 days, SRB; for Selectivity Ratio D8: IC50 HCT116 / IC50 securin KO D8
Method: as §1, §2, §3, §4, §5, §6

[3] = tested on: securin "knock out" cells F3 (Securin-/-); test: Growth inhibition (sulforhodamine B, 5 days) of securin knock out cells F3; details: for IC50: 120 h, securin knock out F3 cells, 5 days, SRB; for Selectivity Ratio F3: IC50 HCT116 / IC50 securin KO F3
Method: as §1, §2, §3, §4, §5, §6

Row | SMILES | IC50 [1] [µM] | IC50 [2] [µM] | Selectivity Ratio D8 [2] | IC50 [3] [µM] | Selectivity Ratio F3 [3]
1 | CN(C)c1ccc(-c2nc3c(s2)C(O)CCC3)c(C(=O)OCc2cccs2)c1 (stereo not drawn) [Example 123, 2-thienylmethyl 5-(dimethylamino)-2-(7-hydroxy-4,5,6,7-tetrahydro-1,3-benzothiazol-2-yl)benzoate] | 90 | 1.7 | 52 | 4.4 | 20
2 | C#CCOC(=O)c1cc(N(C)C)ccc1-c1nc2c(s1)C(O)CCC2 (stereo not drawn) [Example 129, prop-2-yn-1-yl 5-(dimethylamino)-2-(7-hydroxy-4,5,6,7-tetrahydro-1,3-benzothiazol-2-yl)benzoate] | 77.8 | 0.36 | 216 | 0.45 | 172
3 | CN(C)c1ccc(-c2nc3c(s2)C(O)CCC3)c(C(=O)OCc2ccsc2)c1 (stereo not drawn) [Example 122, 3-thienylmethyl 5-(dimethylamino)-2-(7-hydroxy-4,5,6,7-tetrahydro-1,3-benzothiazol-2-yl)benzoate] | 42.2 | 0.76 | 55 | 2.1 | 20
4 | CN(C)c1ccc(-c2nc3c(s2)C(O)CCC3)c(CO)c1 (stereo not drawn) [Example 60, 2-[4-(dimethylamino)-2-(hydroxymethyl)phenyl]-4,5,6,7-tetrahydro-1,3-benzothiazol-7-ol] | 97.5 | 0.091 | 1076 | 0.12 | 821
5 | N#Cc1cc(N2CCCC2)ccc1-c1nc2c(s1)C(O)CCC2 (stereo not drawn) [Example 85, 2-(7-hydroxy-4,5,6,7-tetrahydro-1,3-benzothiazol-2-yl)-5-pyrrolidin-1-ylbenzonitrile] | 48.4 | 0.19 | 253 | 0.31 | 159
6 | CN(C)c1ccc(-c2nc3c(s2)C(O)CCC3)c(C(=O)OCc2ccncc2)c1 (stereo not drawn) [Example 127, pyridin-4-ylmethyl 5-(dimethylamino)-2-(7-hydroxy-4,5,6,7-tetrahydro-1,3-benzothiazol-2-yl)benzoate] | 100 | 4.9 | 20 | 6.3 | 16
7 | OC1CCCc2nc(-c3ccc(N4CCNCC4)cc3)sc21 (stereo not drawn) [Example 163, 2-(4-piperazin-1-yl-phenyl)-4,5,6,7-tetrahydrobenzothiazol-7-ol] | 31.6 | 25.9 | 1 | 22.9 | 1
8 | CC(=O)c1c(-c2nc3c(s2)C(O)CCC3)ccc(N(C)C)c1Br (stereo not drawn) [Example 81, 1-[2-bromo-3-(dimethylamino)-6-(7-hydroxy-4,5,6,7-tetrahydro-1,3-benzothiazol-2-yl)phenyl]ethanone] | 58.9 | 0.13 | 459 | 0.35 | 170
9 | CN(C)c1ccc(-c2nc3c(s2)C(O)CCC3)c(C(C)(C)O)c1 (stereo not drawn) [Example 72, 2-[4-(dimethylamino)-2-(1-hydroxy-1-methylethyl)phenyl]-4,5,6,7-tetrahydro-1,3-benzothiazol-7-ol] | 54 | 1 | 52 | 2 | 27
10 | COC(=O)c1cc(N2CCCC2)ccc1-c1nc2c(s1)C(O)CCC2 (stereo not drawn) [Example 161, 2-(7-Hydroxy-4,5,6,7-tetrahydro-benzothiazol-2-yl)-5-pyrrolidin-1-yl-benzoic acid methyl ester] | 66.3 | 0.4 | 165 | 0.52 | 128
11 | CCCOC(=O)c1cc(N(C)C)ccc1-c1nc2c(s1)C(O)CCC2 (stereo not drawn) [Example 121, propyl 5-(dimethylamino)-2-(7-hydroxy-4,5,6,7-tetrahydro-1,3-benzothiazol-2-yl)benzoate] | 77.3 | 0.69 | 112 | 1.7 | 44
12 | COC(=O)c1cc(N(C)C)ccc1-c1nc2c(s1)C(O)CCC2 (stereo not drawn) [Example 55, methyl 5-(dimethylamino)-2-(7-hydroxy-4,5,6,7-tetrahydro-1,3-benzothiazol-2-yl)benzoate] | 105 | 0.65 | 160 | 1.2 | 90
13 | CN(C)c1ccc(-c2nc3c(s2)C(O)CCC3)c(Br)c1 (stereo not drawn) [Example 140, 2-[2-bromo-4-(dimethylamino)phenyl]-4,5,6,7-tetrahydro-1,3-benzothiazol-7-ol] | 37.2 | 0.57 | 66 | 1.8 | 21
14 | CN(C)c1ccc(-c2nc3c(s2)C(O)CCC3)c(C(=O)OCc2ccccn2)c1 (stereo not drawn) [Example 128, pyridin-2-ylmethyl 5-(dimethylamino)-2-(7-hydroxy-4,5,6,7-tetrahydro-1,3-benzothiazol-2-yl)benzoate] | 86.7 | 1.9 | 45 | 2.6 | 33
15 | CN(C)c1ccc(-c2nc3c(s2)C(O)CC3)cc1 (stereo not drawn) [Example 5, 2-[4-(dimethylamino)phenyl]-5,6-dihydro-4H-cyclopenta[d][1,3]thiazol-6-ol] | 54.3 | 1.3 | 43 | 1.8 | 30
16 | CN(C)c1ccc(-c2nc3c(s2)C(O)CCC3)c(C(=O)OCc2ccoc2)c1 (stereo not drawn) [Example 116, 3-furylmethyl 5-(dimethylamino)-2-(7-hydroxy-4,5,6,7-tetrahydro-1,3-benzothiazol-2-yl)benzoate] | 85.2 | 0.59 | 145 | 0.82 | 104
17 | C=CCOC(=O)c1cc(N(C)C)ccc1-c1nc2c(s1)C(O)CCC2 (stereo not drawn) [Example 112, allyl 5-(dimethylamino)-2-(7-hydroxy-4,5,6,7-tetrahydro-1,3-benzothiazol-2-yl)benzoate] | 97.3 | 0.54 | 182 | 0.72 | 135
18 | CN(C)c1ccc(-c2nc3c(s2)C(O)CCC3)c(C(=O)OCc2cccnc2)c1 (stereo not drawn) [Example 126, pyridin-3-ylmethyl 5-(dimethylamino)-2-(7-hydroxy-4,5,6,7-tetrahydro-1,3-benzothiazol-2-yl)benzoate] | 100 | 1.9 | 54 | 2.5 | 40
19 | CC(C)OC(=O)c1cc(N(C)C)ccc1-c1nc2c(s1)C(O)CCC2 (stereo not drawn) [Example 111, isopropyl 5-(dimethylamino)-2-(7-hydroxy-4,5,6,7-tetrahydro-1,3-benzothiazol-2-yl)benzoate] | 100 | 1.3 | 75 | 1.4 | 71
20 | OCc1cc(N2CCCC2)ccc1-c1nc2c(s1)C(O)CCC2 (stereo not drawn) [Example 162, 2-(2-Hydroxymethyl-4-pyrrolidin-1-yl-phenyl)-4,5,6,7-tetrahydro-benzothiazol-7-ol] | 15.3 | 0.05 | 304 | 0.046 | 333
21 | CN(C)c1ccc(-c2nc3c(s2)C(O)CCC3)c(C=O)c1 (stereo not drawn) [Example 67] | 31 | 0.059 | 525 | 0.15 | 206

From patent publication US20090270363A1, “2-Aryl- and 2-Heteroarylthiazolyl Compounds, Methods for Their Preparation and Use Thereof” (Wyeth, priority 2008, published 2009)
